Reference: ChEMBL document CHEMBL1201862, “PubChem BioAssay data set” (2004)
The source made the active and inactive calls.

Key:
Cytochrome P450 1A2 = target: T1, Cytochrome P450 1A2 (Homo sapiens, UniProt P05177);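 further: PubChem cytochrome P450 panel assay, CYP1A2 panel member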
T1 sequence (P05177 whole entry): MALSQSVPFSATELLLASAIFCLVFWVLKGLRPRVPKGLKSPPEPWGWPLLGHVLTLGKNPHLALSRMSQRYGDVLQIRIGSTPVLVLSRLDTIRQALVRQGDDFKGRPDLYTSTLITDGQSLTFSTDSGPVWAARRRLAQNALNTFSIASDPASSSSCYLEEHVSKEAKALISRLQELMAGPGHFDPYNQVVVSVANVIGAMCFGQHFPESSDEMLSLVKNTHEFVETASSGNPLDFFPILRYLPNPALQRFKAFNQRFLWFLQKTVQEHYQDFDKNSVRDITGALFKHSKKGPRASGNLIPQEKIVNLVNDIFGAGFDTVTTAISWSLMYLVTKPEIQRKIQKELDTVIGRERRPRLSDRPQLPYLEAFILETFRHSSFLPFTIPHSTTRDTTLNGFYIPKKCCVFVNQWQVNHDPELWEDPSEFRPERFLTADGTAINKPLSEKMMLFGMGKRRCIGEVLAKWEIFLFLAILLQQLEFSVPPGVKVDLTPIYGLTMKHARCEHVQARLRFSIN

Cytochrome P450 2C19 = Cytochrome P450 2C19 (Homo sapiens, UniProt P33261); test: Cytochrome panel assay with activity outcomes. Panel member name: p450-cyp2c19 Compounds with AC50 equal or less than 10 uM are considered active; type: functional; conditions: read-out: AC50
Chain of Cytochrome P450 2C19 (P33261 whole entry): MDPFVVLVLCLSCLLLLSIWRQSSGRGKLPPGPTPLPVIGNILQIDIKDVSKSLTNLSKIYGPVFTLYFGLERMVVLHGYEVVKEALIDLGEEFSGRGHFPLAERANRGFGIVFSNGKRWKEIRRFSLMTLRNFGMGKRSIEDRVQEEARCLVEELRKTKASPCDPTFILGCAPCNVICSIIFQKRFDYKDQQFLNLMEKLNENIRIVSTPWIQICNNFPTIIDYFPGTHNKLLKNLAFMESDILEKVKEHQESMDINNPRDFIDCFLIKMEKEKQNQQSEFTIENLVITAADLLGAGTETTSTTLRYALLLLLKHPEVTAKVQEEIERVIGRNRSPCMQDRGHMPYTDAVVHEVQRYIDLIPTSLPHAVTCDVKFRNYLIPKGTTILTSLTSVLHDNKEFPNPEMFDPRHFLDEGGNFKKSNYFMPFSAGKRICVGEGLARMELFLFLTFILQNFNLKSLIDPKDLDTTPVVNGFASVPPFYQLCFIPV

[1] = target: T2, Zinc finger protein mex-5 (Caenorhabditis elegans, UniProt Q9XUB2); test: MEX-5/TCR-2 RNA interaction inhibitors, dose response, biochemical, C. elegans, fluorescence polarization (AID 1960)
T2 sequence (Q9XUB2 whole entry): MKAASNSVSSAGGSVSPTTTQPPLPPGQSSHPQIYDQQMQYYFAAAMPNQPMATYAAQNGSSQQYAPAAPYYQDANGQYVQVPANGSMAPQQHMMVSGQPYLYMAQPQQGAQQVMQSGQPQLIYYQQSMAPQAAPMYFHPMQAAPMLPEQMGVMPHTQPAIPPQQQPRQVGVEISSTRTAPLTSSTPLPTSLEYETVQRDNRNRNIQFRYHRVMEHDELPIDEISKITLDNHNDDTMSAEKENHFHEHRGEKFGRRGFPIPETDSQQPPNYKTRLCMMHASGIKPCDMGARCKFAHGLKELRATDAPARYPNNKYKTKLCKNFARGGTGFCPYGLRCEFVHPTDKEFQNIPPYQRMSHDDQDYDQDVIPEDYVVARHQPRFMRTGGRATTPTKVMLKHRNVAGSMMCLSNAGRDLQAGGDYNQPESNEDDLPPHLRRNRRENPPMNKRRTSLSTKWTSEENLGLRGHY

Cytochrome P450 2C9 = Cytochrome P450 2C9 (Homo sapiens, UniProt P11712)
Chain of Cytochrome P450 2C9 (P11712 whole entry, the tested form may be a part): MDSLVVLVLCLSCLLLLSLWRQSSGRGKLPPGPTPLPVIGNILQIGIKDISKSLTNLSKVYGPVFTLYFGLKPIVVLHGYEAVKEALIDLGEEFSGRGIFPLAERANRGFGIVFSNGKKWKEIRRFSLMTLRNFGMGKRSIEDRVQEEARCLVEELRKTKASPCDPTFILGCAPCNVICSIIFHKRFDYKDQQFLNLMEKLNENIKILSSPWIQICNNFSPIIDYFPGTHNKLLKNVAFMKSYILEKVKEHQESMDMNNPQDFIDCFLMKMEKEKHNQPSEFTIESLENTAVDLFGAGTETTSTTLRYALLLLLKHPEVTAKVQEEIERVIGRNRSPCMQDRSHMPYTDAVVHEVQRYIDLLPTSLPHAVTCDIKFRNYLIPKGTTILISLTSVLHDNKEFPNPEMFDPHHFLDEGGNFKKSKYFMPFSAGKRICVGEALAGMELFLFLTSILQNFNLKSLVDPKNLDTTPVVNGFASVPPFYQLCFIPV

[2] = target: T3, RNA-binding protein pos-1 (Caenorhabditis elegans, UniProt G5EF15); test: inhibitors of POS-1/mex-3 RNA binding, dose response, biochemical, fluorescence polarization (AID 1964);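 further: purified POS-1 fused to maltose binding protein made in E. coli; potency of compounds blocking POS-1 binding to fluorescent RNA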
T3 sequence (G5EF15 whole entry): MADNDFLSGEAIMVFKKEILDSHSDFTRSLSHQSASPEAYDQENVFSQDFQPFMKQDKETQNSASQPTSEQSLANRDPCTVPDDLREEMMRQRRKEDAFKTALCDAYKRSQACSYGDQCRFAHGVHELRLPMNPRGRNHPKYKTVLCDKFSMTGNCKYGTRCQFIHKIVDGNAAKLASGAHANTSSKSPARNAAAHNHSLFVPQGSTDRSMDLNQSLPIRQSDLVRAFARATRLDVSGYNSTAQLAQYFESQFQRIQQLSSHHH

[3] = target: T4, Heat shock factor protein 1 (Mus musculus, UniProt P38532); test: inhibition of MG132-induced HSE-luciferase signal, confirmation, cell-based, NIH3T3, luminescence, dose retest (AID 2382); type: functional;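 further: NIH3T3 fibroblasts with HSF1-driven luciferase reporter stressed by proteasome inhibitor MG132; luminescence from HSF1-driven luciferase expression after 8 hours of MG132 stress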
T4 sequence (P38532 whole entry): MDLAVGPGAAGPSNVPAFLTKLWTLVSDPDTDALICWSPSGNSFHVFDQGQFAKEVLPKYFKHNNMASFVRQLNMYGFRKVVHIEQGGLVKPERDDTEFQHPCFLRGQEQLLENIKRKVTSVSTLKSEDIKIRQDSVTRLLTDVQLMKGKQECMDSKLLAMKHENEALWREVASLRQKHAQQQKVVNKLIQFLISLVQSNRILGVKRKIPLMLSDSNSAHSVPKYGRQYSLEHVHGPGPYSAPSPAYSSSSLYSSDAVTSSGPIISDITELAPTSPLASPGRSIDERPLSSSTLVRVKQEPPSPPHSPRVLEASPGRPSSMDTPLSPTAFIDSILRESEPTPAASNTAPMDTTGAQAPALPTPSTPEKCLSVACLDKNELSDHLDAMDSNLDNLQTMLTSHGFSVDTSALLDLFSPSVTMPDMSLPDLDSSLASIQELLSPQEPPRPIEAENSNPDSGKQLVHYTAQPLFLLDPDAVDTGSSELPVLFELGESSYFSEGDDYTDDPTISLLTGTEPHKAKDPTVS

[4] = Luminescence Cell-Based Dose Confirmation HTS to Identify Inhibitors of Platelet Dense Granule Release. [Related pubchem assays: 1663 (Primary HTS), 1678 (Summary of Project)]; type: functional
[5] = target: Luciferin 4-monooxygenase (Photinus pyralis, UniProt P08659); test: firefly luciferase enzyme inhibitors, dose response, biochemical, luminescence (AID 1891)
Chain of Luciferin 4-monooxygenase (P08659 whole entry): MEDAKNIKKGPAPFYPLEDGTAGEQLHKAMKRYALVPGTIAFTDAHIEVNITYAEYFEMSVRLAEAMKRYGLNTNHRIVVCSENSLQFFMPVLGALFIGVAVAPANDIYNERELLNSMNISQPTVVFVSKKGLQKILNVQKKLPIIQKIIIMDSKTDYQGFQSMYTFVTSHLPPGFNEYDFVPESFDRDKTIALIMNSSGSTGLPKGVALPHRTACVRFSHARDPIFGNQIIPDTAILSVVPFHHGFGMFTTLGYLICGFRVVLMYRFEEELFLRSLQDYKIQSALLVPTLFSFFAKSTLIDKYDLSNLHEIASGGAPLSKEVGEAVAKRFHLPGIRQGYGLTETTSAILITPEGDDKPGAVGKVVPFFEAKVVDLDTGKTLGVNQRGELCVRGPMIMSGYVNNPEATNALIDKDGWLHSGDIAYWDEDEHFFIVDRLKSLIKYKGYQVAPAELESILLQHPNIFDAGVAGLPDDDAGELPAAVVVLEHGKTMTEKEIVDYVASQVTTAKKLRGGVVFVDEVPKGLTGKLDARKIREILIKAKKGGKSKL

H9c2 = test: cells; type: functional, cell-based; conditions: Rattus norvegicus, H9c2, Myocardium
Paired box protein Pax-8 = Paired box protein Pax-8 (Homo sapiens, UniProt Q06710); test: inhibitors of PAX8-driven TPO luciferase reporter, dose response, RMG-I cells, cherry-pick (AID 687027); type: functional, cell-based;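 further: luciferase reporter driven by Pax8 target thyroperoxidase promoter measured by SteadyGlo luminescence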
Chain of Paired box protein Pax-8 (Q06710 whole entry): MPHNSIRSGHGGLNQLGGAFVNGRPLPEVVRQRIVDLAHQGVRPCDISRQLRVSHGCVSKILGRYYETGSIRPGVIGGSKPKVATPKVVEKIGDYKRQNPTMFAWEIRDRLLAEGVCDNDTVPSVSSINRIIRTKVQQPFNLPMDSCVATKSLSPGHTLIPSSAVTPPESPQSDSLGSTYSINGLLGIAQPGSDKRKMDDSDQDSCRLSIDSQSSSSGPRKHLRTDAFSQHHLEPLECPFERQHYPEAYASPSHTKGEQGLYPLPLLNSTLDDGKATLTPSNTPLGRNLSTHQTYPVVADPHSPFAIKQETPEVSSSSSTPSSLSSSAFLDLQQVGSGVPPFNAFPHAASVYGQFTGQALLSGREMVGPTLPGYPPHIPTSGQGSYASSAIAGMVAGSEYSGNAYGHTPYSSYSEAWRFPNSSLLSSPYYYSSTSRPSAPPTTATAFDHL

Cytochrome P450 2D6 = Cytochrome P450 2D6 (Homo sapiens, UniProt P10635);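 further: CYP2D6 member of a cytochrome P450 panel assay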
Chain of Cytochrome P450 2D6 (P10635 whole entry): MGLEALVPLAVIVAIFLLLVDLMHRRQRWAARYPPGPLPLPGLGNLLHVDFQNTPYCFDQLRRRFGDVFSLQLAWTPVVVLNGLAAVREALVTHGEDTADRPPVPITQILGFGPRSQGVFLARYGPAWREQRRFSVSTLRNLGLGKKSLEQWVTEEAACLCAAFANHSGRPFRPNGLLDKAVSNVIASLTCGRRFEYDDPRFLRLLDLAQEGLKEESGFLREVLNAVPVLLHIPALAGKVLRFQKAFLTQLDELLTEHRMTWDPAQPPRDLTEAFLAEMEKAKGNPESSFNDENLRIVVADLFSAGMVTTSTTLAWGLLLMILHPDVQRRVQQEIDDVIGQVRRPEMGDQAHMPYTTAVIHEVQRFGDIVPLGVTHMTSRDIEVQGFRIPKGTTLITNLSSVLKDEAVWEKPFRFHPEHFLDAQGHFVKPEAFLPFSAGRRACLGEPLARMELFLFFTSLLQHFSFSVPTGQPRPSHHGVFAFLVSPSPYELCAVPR

Cytochrome P450 3A4 = Cytochrome P450 3A4 (Homo sapiens, UniProt P08684);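 further: CYP3A4 tested as one member of a cytochrome P450 panel screen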
Chain of Cytochrome P450 3A4 (P08684 whole entry): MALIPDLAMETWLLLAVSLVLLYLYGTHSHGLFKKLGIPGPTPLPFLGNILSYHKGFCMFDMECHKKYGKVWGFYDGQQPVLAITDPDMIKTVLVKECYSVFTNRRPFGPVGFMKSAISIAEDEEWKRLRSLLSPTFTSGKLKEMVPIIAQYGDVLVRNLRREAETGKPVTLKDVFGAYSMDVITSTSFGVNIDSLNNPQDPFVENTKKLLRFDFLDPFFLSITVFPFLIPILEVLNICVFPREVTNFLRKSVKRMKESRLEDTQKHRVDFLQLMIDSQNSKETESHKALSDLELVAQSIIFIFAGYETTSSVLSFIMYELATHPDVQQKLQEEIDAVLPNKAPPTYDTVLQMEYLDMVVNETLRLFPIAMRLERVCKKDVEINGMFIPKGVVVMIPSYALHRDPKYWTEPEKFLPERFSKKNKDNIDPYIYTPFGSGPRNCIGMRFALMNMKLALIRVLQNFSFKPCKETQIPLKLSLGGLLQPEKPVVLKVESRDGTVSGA
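Wherever IC50 is given: confirmatory concentration-response retest of ultra-high-throughput screening hits for modulation of myocardial damage; cell death induced by hydrogen peroxide oxidative stress; compound pretreatment for 60 min then peroxide exposure for 2 h; potency is for protecting the cells against peroxide damage rather than for killing them.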

## CC(C)c1ccc(C2C(C#N)=C(N)N3C(=C2C#N)Sc2ccccc23)cc1 (configuration not stated)
Cytochrome P450 1A2
  AC50: 25.1 µM (inconclusive)
Cytochrome P450 2C19
  AC50: 14.1 µM (inconclusive)
[1]
  EC50: 61.3 µM (active)
Cytochrome P450 2C9
  AC50: 10 µM (inconclusive)
[2]
  EC50: 33 µM (inconclusive)

## Cc1ccc(CO/N=C/c2c(O)cc(C)oc2=O)cc1
[3]
  EC50: > 195 µM (not active)

## CCOC(=O)c1nn(-c2ccc3c(c2)CCN3C(C)=O)cc1O
[4]
  EC50: > 112 µM (not active)
[5]
  EC50: > 112 µM (not active)

## Cc1ccc(-c2nnc(O)c3ccccc23)cc1S(=O)(=O)NCCO
H9c2
  IC50: > 79 µM (inactive)

## Cc1nc2ccccc2c2c(N)c3ccccc3n12
H9c2
  IC50: 21.6 µM (active)

## COc1cc(C2C3=C(COC3=O)OC(C)(C)Oc3cc4c(cc32)OCO4)cc(OC)c1OC (configuration not stated)
Paired box protein Pax-8
  AC50: 1.78 µM (active)

## O=C(NCc1cccs1)c1csc2ccccc12
[4]
  EC50: > 112 µM (not active)
[5]
  EC50: > 112 µM (not active)

## O=C(NCc1ccccc1C(F)(F)F)C12CN(Cc3ccccc3)CC1C(c1ccc([N+](=O)[O-])cc1)=NO2 (configuration not stated)
[3]
  EC50: > 195 µM (not active)

## C[C@H]1CCCCO[C@H](CN(C)S(=O)(=O)c2ccc(Cl)cc2)[C@@H](C)CN([C@@H](C)CO)C(=O)c2cc(NS(=O)(=O)c3ccc(Cl)cc3)ccc2O1
Paired box protein Pax-8
  AC50: 5.52 µM (active)

## COC(=O)c1ccc(CSc2nnc(N)s2)cc1
[4]
  EC50: > 112 µM (not active)
[5]
  EC50: > 112 µM (not active)

## O=[N+]([O-])c1ccccc1S(=O)(=O)n1nnc2ccccc21
[1]
  EC50: > 300 µM (not active)
[2]
  EC50: > 300 µM (not active)

## CC(C)OC(=O)CC(=O)c1sc2nc3c(cc2c1N)CN(C)CC3
[1]
  EC50: 19.3 µM (inconclusive)
[2]
  EC50: > 300 µM (not active)

## C[C@@H]1CN([C@@H](C)CO)C(=O)c2cc(NS(=O)(=O)c3ccc(F)cc3)ccc2O[C@@H](C)CCCCO[C@H]1CN(C)Cc1ccc(C(F)(F)F)cc1
Paired box protein Pax-8
  AC50: 7.5 µM (active)

## COC/C=C/C1=CC2=CC(=O)C(C)(OC(=O)c3cccs3)C(=O)C2=CO1 (configuration not stated)
[1]
  EC50: 51.8 µM (active)
[2]
  EC50: > 300 µM (not active)

## COc1cc(C2C(C#N)=C(N)OC3=C2C(=O)CCC3)ccc1OC(=O)N1CCOCC1 (configuration not stated)
[1]
  EC50: > 300 µM (not active)
[2]
  EC50: > 300 µM (not active)

## CCn1c(O)cc(=O)nc1SCC(=O)N1CCOCC1
[3]
  EC50: > 195 µM (not active)

## COc1cccc(-c2cnc3c(NC=O)cc(-c4ccc(OC)cc4OC)cn23)c1
Paired box protein Pax-8
  AC50: 2.93 µM (active)

## COc1ccc2oc(=O)c(C(=O)N3CCCC3)cc2c1
[4]
  EC50: > 112 µM (not active)
[5]
  EC50: > 112 µM (not active)

## O=C(c1ccco1)N1CCN(Cc2nc3ccc([N+](=O)[O-])cc3c(=O)n2-c2ccccc2F)CC1
H9c2
  IC50: 27.6 µM (active)

## O=C(Oc1cc(=O)oc2c1c(=O)n1c3c(cccc23)CC1)c1ccc(F)cc1
[3]
  EC50: 22.2 µM (active)

## COc1ccc(CC(=O)NCC2CCCN(Cc3ccccc3Cl)C2)cc1 (configuration not stated)
[3]
  EC50: > 195 µM (not active)

## COc1ccc(C(=O)N2CCCC(c3nc(-c4ccc(OC)c(OC)c4)no3)C2)c(OC)c1 (configuration not stated)
[4]
  EC50: > 112 µM (not active)
[5]
  EC50: > 112 µM (not active)

## O=C(CC(=O)c1ccccc1[N+](=O)[O-])c1ccccc1
[3]
  EC50: > 195 µM (not active)

## COC(=O)c1ccc(C)c(-n2c(C)cc(C=O)c2C)c1
[1]
  EC50: > 300 µM (not active)
[2]
  EC50: > 300 µM (not active)

## O=c1c2ccccc2nc2c3ccccc3c(NCCO)nn12
H9c2
  IC50: 20.2 µM (active)

## O=C1c2cccnc2Oc2ccc(Cl)cc2N1Cc1ccc(F)cc1
H9c2
  IC50: > 79 µM (inactive)
[3]
  EC50: > 195 µM (not active)

## Cc1ccc(C(c2c(C)n(C)n(-c3ccccc3)c2=O)c2c(C)n(C)n(-c3ccccc3)c2=O)s1
H9c2
  IC50: > 79 µM (inactive)

## Cc1ccc(-c2ccccc2)n1-c1cccc(C(=O)O)c1
[1]
  EC50: > 300 µM (not active)
[2]
  EC50: 109 µM (active)

## Nc1cc2nc(O)c3ccccc3c2cc1Br
H9c2
  IC50: > 79 µM (inactive)

## NC(=O)c1oc2ccccc2c1NC(=O)c1ccco1
H9c2
  IC50: 17 µM (active)

## COc1ccc(CNC(=O)COC(=O)c2cc(-c3ccc(Cl)s3)nc3ccccc23)cc1
[1]
  EC50: 58.6 µM (active)
[2]
  EC50: 92.1 µM (active)

## COc1cc(-c2cnc3c(NC=O)cc(-c4cccnc4)cn23)cc(OC)c1OC
H9c2
  IC50: 22.4 µM (active)

## COc1ccc(/N=C/C2=C(O)c3ccccc3C2=O)cc1
[4]
  EC50: 3.93 µM (active)
[5]
  EC50: 0.576 µM (active)

## C[C@@H]1CN([C@H](C)CO)C(=O)c2cc(NC(=O)c3ccncc3)ccc2O[C@@H](C)CCCCO[C@H]1CN(C)Cc1ccc(C(F)(F)F)cc1
Paired box protein Pax-8
  AC50: 12 µM (active)

## CCC(=O)Nc1c(-c2ccc(Cl)cc2)c(=O)c2ccccc2n1C
[3]
  EC50: > 195 µM (not active)

## CCN(Cc1cc(=O)oc2cc(C)ccc12)c1ccccc1
[3]
  EC50: > 195 µM (not active)

## CC1CCCN(C(=O)C2CCN(S(=O)(=O)c3ccc4c(c3)CC(C)N4C(=O)C3CC3)CC2)C1 (configuration not stated)
[3]
  EC50: > 195 µM (not active)

## COc1ccc(N(CC(=O)NCc2ccc(F)cc2)C(=O)Cn2nnc(-c3ccc(C)o3)n2)cc1OC
[3]
  EC50: > 195 µM (not active)

## CCOC(=O)[C@@]1(C#N)C(c2ccc(Cl)c(Cl)c2)[C@H](C(N)=O)N2C=C(C(C)=O)C=C[C@H]21 (some centres not stated)
[1]
  EC50: 24 µM (inconclusive)
[2]
  EC50: 55.7 µM (inconclusive)

## CC(CN1CCOCC1)OC(=O)C(c1ccccc1)c1ccccc1 (configuration not stated)
[3]
  EC50: > 195 µM (not active)

## COC(=O)c1sccc1NC(=O)Nc1cccc(OC)c1
[4]
  EC50: 4.37 µM (active)
[5]
  EC50: 1.31 µM (active)

## Brc1cc2c(cc1/C=N/Nc1nc(N3CCCC3)nc(N3CCOCC3)n1)OCO2
Cytochrome P450 2D6
  AC50: 28.2 µM (inconclusive)
Cytochrome P450 1A2
  AC50: 15.8 µM (inconclusive)
H9c2
  IC50: > 79 µM (inactive)

## COc1ccc(OCC(=O)Nc2nc3ccccc3[nH]2)cc1
[4]
  EC50: > 112 µM (not active)
[5]
  EC50: > 112 µM (not active)

## N#CC(c1nc2ccccc2nc1OCCO)S(=O)(=O)c1ccccc1 (configuration not stated)
[1]
  EC50: 142 µM (inconclusive)
[2]
  EC50: > 300 µM (not active)

## COc1c(C)cc(Br)cc1C(=O)Nc1cccc(-c2nc3ncccc3o2)c1
H9c2
  IC50: > 79 µM (inactive)

## CN1CCC(N(C)C(=O)CCc2nc(O)c3ccccc3n2)CC1
Cytochrome P450 3A4
  AC50: 28.2 µM (inconclusive)
H9c2
  IC50: > 79 µM (inactive)

## CC(=O)c1cccc(NC(=O)C(C)OC(=O)Cc2nnc(O)c3ccccc23)c1 (configuration not stated)
H9c2
  IC50: > 79 µM (inactive)
